IC50 data for six compounds are collected here from BindingDB's records for doi:10.7270/Q2WD3Z10 (Burnham Center For Chemical Genomics, 2010).

NACHT, LRR and PYD domains-containing protein 3, sequence (Q96P20 whole entry, the tested form may be a part): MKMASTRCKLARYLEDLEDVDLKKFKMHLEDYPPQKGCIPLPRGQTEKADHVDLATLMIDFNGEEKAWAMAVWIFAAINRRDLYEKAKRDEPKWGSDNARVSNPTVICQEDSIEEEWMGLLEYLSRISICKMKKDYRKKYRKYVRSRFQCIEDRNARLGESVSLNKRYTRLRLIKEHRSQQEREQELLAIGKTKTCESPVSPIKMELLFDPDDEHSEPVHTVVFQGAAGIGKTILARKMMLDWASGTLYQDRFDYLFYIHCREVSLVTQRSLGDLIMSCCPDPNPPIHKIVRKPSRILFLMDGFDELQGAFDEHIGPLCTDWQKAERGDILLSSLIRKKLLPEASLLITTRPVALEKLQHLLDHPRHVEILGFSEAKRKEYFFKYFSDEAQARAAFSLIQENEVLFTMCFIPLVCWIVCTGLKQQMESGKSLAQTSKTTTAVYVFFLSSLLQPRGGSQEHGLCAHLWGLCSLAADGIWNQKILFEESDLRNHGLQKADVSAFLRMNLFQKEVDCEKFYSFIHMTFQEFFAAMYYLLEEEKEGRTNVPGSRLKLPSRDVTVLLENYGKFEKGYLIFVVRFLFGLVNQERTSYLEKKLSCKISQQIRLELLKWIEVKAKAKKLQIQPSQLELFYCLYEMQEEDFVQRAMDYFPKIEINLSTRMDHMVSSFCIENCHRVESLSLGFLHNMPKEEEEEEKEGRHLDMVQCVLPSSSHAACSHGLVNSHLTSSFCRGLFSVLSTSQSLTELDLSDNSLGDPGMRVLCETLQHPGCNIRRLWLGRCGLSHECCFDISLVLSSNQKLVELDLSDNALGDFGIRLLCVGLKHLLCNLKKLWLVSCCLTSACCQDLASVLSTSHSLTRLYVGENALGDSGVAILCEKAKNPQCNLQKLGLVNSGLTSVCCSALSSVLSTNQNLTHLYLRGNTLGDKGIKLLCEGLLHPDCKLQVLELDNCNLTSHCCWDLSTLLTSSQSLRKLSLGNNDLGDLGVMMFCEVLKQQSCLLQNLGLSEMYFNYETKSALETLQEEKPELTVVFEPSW

The test has as its target NACHT, LRR and PYD domains-containing protein 3 (Homo sapiens, UniProt Q96P20). Description: NALP3 inhibitors in yeast, dose response, luminescent (AID 488799).
`O=C(NCCC1=CCCCC1)c1c(O)n2ccsc2nc1=O` [SMR000811826] came in with an IC50 of 3.8 µM.

The compound `O=C(NCCCc1ccccc1)c1c(O)n2ccsc2nc1=O` [5-oxidanyl-7-oxidanylidene-N-(3-phenylpropyl)-[1,3]thiazolo[3,2-a]pyrimidine-6-carboxamide] returned an IC50 of 9.61 µM.

As for `O=C1C=CC(/N=N/c2ccc([N+](=O)[O-])cc2Cl)=CC1C(=O)Nc1cccc(Cl)c1` (stereo unspecified) [(3Z)-3-[(2-chloro-4-nitrophenyl)hydrazinylidene]-N-(3-chlorophenyl)-6-oxocyclohexa-1,4-diene-1-carboxamide], the 50% inhibitory concentration (IC50) came to 1.34 µM.

Regarding `C=CCc1c(C)nc(C)nc1N=NCc1ccccc1O` [2-[(5-Allyl-2,6-dimethyl-pyrimidin-4-yl)-hydrazonomethyl]-phenol], the IC50 is 45.5 µM.

`CCCCCC(=O)N1CCN(CCNC=C2C(=O)CC(c3ccco3)CC2=O)CC1` (stereo unspecified) [SMR000019406] yielded an IC50 of 7.3 µM.

The compound `Cc1csc2nc(=O)c(C(=O)NCCC3=CCCCC3)c(O)n12` had an IC50 of 4.07 µM.

One may read the IC50 as the concentration that gives 50% inhibition. Read a high IC50 as lower potency.
